The values that follow come from patent US20200385396A1, “Compond for treatment or prevention of obesity or diseases related to obesity, and application thereof” (SHANGHAI INSTITUTES FOR BIOLOGICAL SCIENCES, CHINESE …, priority 2017, published 2020).

For one assay, the system named is mice. As to the kind of experiment: Water consumption of mice. The class given is in vivo, mouse. As to conditions: 20 mg/kg injection, three consecutive days. The procedure: Since OB/OB mice are a diabetic mouse model, they have the characteristics of polyphagia, polydipsia, and polyuria. […] Again whether HLY72 had the effect of reducing drinking water in mice was tested. […] For the mice of high-fat diet (HFD), the three-day water consumption is only 26.38%±2.06% of the control group (FIG. 9). Therefore, HLY72, like NUCB2/Nesfatin-1, has the effect of reducing water consumption in mice.

A further assay concerns OB/OB obese model mice. Description: Weight loss in OB/OB obese model mice. Type of assay: in vivo, mouse. From the text: All animal experiments were approved by the Animal Management Committee of SIBCB. C57BL/6 mice were purchased from Lingchang company (normal mice and high-fat diet-induced obese mice), C57/BLJ6 (NUCB2 gene knockout mice for breeding and background purification) were purchased from Lingchang company, OB/OB mice were purchased from Slack company. A high-fat diet (45% kcal, D12451) for inducing obese mice was purchased from Research Diets. Starting from the sixth week, it was fed with high-fat diet for 14-25 weeks. The rest of the mice used normal diet (13.5% kcal). The mice were housed in the SPF grade animal house of SIBCB. The lights were turned off for 12 hours (19: 00-07: 00), and the lights were turned on for 12 hours (07: 00-19: 00).
Mice were intraperitoneally injected with DMSO or HLY72 (dissolved in DMSO) 25 μL within 2 hours before turning off the lamp. During the intragastric experiment, the high concentration of HLY72 dissolved in DMSO was dissolved in 10% cyclodextrin, and the total volume was 100 μL Volume by gavage, so that the final concentration of DMSO was less than 10%. The diet was weighed at the 3rd hour, the 6th hour, the 12th hour, and the 24th hour respectively after the lights out. The corresponding mouse body weight was also weighed at the same time before the daily administration. The fat content of mice was measured with the magnetic resonance fat content measuring instrument of the animal platform in SIBCB.
After obtaining the above results, we now begin to use the small molecule HLY72 in obese mouse models. We first chose the obese mouse model (OB/OB) caused by Leptin mutation. An important reason for the persistence of obesity is the resistance and tolerance to regulatory factors such as Insulin and Leptin. And we are very pleased with the fact that NUCB2 can reduce the food intake of Leptin receptor mutant Zucker rats. In this regard, we can reasonably speculate that the small molecule HLY72 should also have an effect on OB/OB mice. Sure enough, the injection of HLY72 has a significant weight loss effect on OB/OB mice.

Another assay addresses T1, NUCB2 protein (Mus musculus, UniProt P81117).
T1 construct: Immediately the mouse full-length NUCB2 protein expressed in E. coli was purified; His tag (inferred from pET-28A vector, Ni-NTA purification and His antibody); made in house; host or cells: E. coli BL21-CodonPlus (DE3)
T1 sequence (P81117 25-420): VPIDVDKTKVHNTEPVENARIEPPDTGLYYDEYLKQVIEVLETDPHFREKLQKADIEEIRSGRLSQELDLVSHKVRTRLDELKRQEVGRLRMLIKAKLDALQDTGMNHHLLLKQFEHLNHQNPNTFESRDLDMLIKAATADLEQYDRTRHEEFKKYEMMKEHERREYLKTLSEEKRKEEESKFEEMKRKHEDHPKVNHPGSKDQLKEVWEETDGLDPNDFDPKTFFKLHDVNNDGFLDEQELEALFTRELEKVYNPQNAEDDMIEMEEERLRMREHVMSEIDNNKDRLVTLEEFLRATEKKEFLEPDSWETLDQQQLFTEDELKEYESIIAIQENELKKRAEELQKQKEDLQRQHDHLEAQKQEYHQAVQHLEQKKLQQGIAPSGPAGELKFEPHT
Description: Competitive binding experiment: small molecules compete with Bio78 (HLY179) for NUCB2. As to conditions: competitor final concentration 100 μM; HLY179 20 μM. Here is the method:
When doing the combining experiments, (1) pre-treating Streptavidin-Agarose, washing Streptavidin-Agarose Beads with IP buffer, and spinning it on the rotor for 10 minutes. (2) Re-binding small molecules HLY179 (20 μM) and Streptavidin-Agarose Beads, spinning it in a refrigeration house at 4° C. for 1-2 hours. (3) When the previous step was performed for about 1 hour, the protein was pre-cleared at the same time, and the protein and the washed Streptavidin-Agarose were rotated in a refrigeration house at 4° C. for 30 minutes. (4) the Streptavidin-Agarose Beads binded with HLY179 was centrifuged, the supernatant was removed, washed again with 600 μL of IP buffer (rotated at 4° C. for 3 minutes), centrifuged, and the supernatant was removed carefully. (5) the pre-cleard protein was added and rotated in a refrigeration house at 4° C. for 2 hours. Washd twice with IP buffer 800 μL, 2 minutes each time (all rotated in a refrigeration house at 4° C.). After the last wash, the supernatant was removed, 40 μL of 2*loading was added and cooked for 10 minutes, stored at −20° C. When doing competitive binding experiments, in the third step while pre-treating the protein adding different small molecule compounds, the final concentration was 100 μM, and the rest was the same. Western Blot: Preparing the appropriate concentration of SDS-PAGE gel, adding protein sample for electrophoretic separation. […]

The mark [1] stands for this setting: OB/OB mice, 20 mg/kg injection, 7 consecutive days.

Consider `C=Cc1cccc2c1N(C)Cc1cc3c(cc1-2)OCO3` [HLY72], for which the “three-day water consumption of treated mice, percent of control group” value is reported as 26.38%±2.06% in the assay with mice (high-fat diet (HFD) mice) and 39.68%±2.29% in the assay on mice (normal chow diet (NCD) mice). In addition, the urine of mice entry in the assay on OB/OB obese model mice (OB/OB mice injected with HLY72) is “significantly reduced”. Also, the “daily food intake compared with the DMSO group” value in the assay on OB/OB obese model mice (OB/OB mice, 20 mg/kg injection) is listed as “significantly reduced”. Moreover, the “body weight after treatment” value in the assay with OB/OB obese model mice (setting [1]) was determined as 37.73 ± 0.87 g. Further, in the assay with OB/OB obese model mice (setting [1]), the “reduction in total body weight” value was 10.15%±0.87%. For the same compound, the “body weight before treatment” value with OB/OB obese model mice (OB/OB mice, 20 mg/kg injection, start) worked out at 42.02 ± 1.01 g. In addition, the “compete with Bio78 for binding to NUCB2” value at NUCB2 protein is listed as “can also compete”.
